From patent US8697691B2, “Alkyl 3-((2-amidoethyl)amino)-8-azabicyclo[3.2.1]octane-8-carboxylate analogs as selective M1 agonists and methods of making and using same” (Vanderbilt University, priority 2009, dated 2014)
pEC50: −log10 of the molar value. Read-outs that look alike come from different tables or passages of the source.

Target: T1, rat M1 receptor (Rattus norvegicus, UniProt P08482)
T1 construct: host or cells: CHO-K1
T1 sequence (P08482 1-460): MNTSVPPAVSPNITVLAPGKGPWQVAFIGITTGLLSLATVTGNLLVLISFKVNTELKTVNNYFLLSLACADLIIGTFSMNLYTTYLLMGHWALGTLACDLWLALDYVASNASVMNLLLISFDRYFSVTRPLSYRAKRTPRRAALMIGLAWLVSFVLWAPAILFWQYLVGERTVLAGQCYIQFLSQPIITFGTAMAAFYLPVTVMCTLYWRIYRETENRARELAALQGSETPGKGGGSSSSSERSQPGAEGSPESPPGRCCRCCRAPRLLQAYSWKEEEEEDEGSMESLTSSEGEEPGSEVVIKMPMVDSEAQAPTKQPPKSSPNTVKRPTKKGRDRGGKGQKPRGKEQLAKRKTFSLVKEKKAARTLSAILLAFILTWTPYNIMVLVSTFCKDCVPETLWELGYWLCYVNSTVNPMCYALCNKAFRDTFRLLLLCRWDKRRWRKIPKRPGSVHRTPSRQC
Test: Calcium mobilization assay, CHO-K1 cells stably expressing rat M1 (low throughput, Flexstation II)
Format: cell-based
Conditions: for Emax: CHO-K1, read-out: Efficacy (% Max ACh)
Text: Chinese hamster ovary (CHO-K1) cells stably expressing rat (r)M1 were purchased from the American Type Culture Collection and cultured according to their indicated protocol. CHO cells stably expressing human (h)M2, hM3, and hM5 were described previously (Levey et al., 1991); hM1 and hM4 cDNAs were purchased from Missouri S&T cDNA Resource; rM4 cDNA was provided by T. I. Bonner (National Institutes of Health, Bethesda, Md.). hM1, hM4, and rM4 cDNAs were used to stably transfect CHO-K1 cells purchased from the American Type Culture Collection using Lipofectamine2000. To make stable hM2, hM4 and rM4 cell lines for use in calcium mobilization assays, these cells also were stably transfected with a chimeric G-protein (Gqi5) (provided by B. R. Conklin, University of California, San Francisco) using Lipofectamine 2000. rM1, hM3, and hM5 cells were grown in Ham's F-12 medium containing 10% heat-inactivated fetal bovine serum (FBS), 20 mM HEPES, and 50 μg/mL G418 sulfate. hM2-Gqi5 and hM4-Gqi5 cells were grown in the same medium also containing 500 μg/mL Hygromycin B. Stable rM4-Gqi5 cells were grown in DMEM containing 10% heat-inactivated FBS, 20 mM HEPES, 400 μg/mL G418 sulfate, and 500 μg/mL Hygromycin B. The rat M1 Y381A orthosteric mutant receptor cDNA was generated using the Quik-Change site-directed mutagenesis kit (Stratagene) and verified by sequencing. CHO-K1 cells were stably transfected with this cDNA using Lipofectamine2000 and screened for expression based on calcium mobilization in response to the allosteric M1 agonist N-desmethylclozapine.
For low throughput measurement of agonist-evoked increases in intracellular calcium, CHO-K1 cells stably expressing muscarinic receptors were plated in 100 μL of growth medium at 5×10^4 (rM1, hM3, and hM5) or 6×10^4 cells per well (rM1 Y381A, hM2, and rM4) in Costar 96-well black-walled, tissue culture (TC)-treated, clear-bottom plates (Fisher). Cells were incubated overnight at 37° C. and 5% CO2. The next day, medium was removed from the cells, and they were incubated with 50 μL of 2 μM Fluo-4/acetoxymethyl ester (Invitrogen, Carlsbad, Calif.) prepared as a 2.3 mM stock in DMSO and mixed in a 1:1 ratio with 10% (w/v) Pluronic F-127 and diluted in assay buffer [HBSS (Invitrogen) supplemented with 20 mM HEPES and 2.5 mM probenecid, pH 7.4] for 1 h at 37° C. and 5% CO2. Dye was removed and replaced with 50 μL of assay buffer. For calcium fluorescence measurements, CRCs of compounds (50 μl, 2×) were added 19 s after the beginning of data collection via a Flexstation II (Molecular Devices, Sunnyvale, Calif.). Fluorescence imaging continued for a total of 130 s acquisition time using an excitation wavelength of 488 nm, an emission wavelength of 525 nm, and a cutoff wavelength of 515 nm. All of the peaks of the calcium response were normalized to the response to a maximally effective concentration of ACh (ECmax). These normalized peak calcium response values were fit using GraphPad Prism version 4.0 to a four-parameter logistic equation to determine EC50 values.

[1] = rat M1, agonist-evoked calcium mobilization in CHO-K1 cells, read-out: Potency (EC50)

SMILES | Emax | pEC50 | pEC50 [1]
CCOC(=O)N1C2CCC1CC(NCCNC(=O)Cc1ccccc1)C2 (centres unmarked) [Example 19, ethyl 3-{[2-(2-phenylacetamido)ethyl]-amino}-8-azabicyclo[3.2.1]octane-8-carboxylate] | 33% |  | 
CCOC(=O)N1C2CCC1CC(NCCNC(=O)c1cccs1)C2 (centres unmarked) [Example 1, Ethyl 3-(2-(thiophene-2-carboxamido)ethylamino)-8-azabicyclo[3.2.1]octane-8-carboxylate] | 88% | 7.13 | 
CCOC(=O)N1C2CCC1CC(NCCNC(=O)c1cccc(C)c1)C2 (centres unmarked) [Example 9, ethyl 3-({2-[(3-methylphenyl)formamido]-ethyl}amino)-8-azabicyclo[3.2.1]octane-8-carboxylate] | 103% |  | 6.94
CCOC(=O)N1C2CCC1CC(NCCNC(=O)c1ccccc1F)C2 (centres unmarked) [Example 2, Ethyl 3-(2-(2-fluorobenzamido)ethylamino)-8-azabicyclo[3.2.1]octane-8-carboxylate] | 103% | 7.16 | 
CCOC(=O)N1C2CCC1CC(NCCNC(=O)c1cccc(OC)c1)C2 (centres unmarked) [Example 4, ethyl 3-({2-[(3-methoxy-phenyl)formamido]-ethyl}amino)-8-azabicyclo[3.2.1]octane-8-carboxylate] | 81% |  | 6.68
CCOC(=O)N1C2CCC1CC(NCCNC(=O)c1ccc(F)cc1Cl)C2 (centres unmarked) [Example 7, ethyl 3({2-[(2-chloro-4-fluorophenyl)formamido]-ethyl}amino)-8-azabicyclo[3.2.1]octane-8-carboxylate] | 95% | 7.02 | 
CCOC(=O)N1C2CCC1CC(NCCNC(=O)c1ccc(Cl)cc1)C2 (centres unmarked) [Example 24] | 25% |  | 5.97
CCOC(=O)N1C2CCC1CC(NCCNC(=O)c1ccc(Cl)c(Cl)c1)C2 (centres unmarked) [Example 10, ethyl 3-({2-[(3,4-dichlorophenyl)formamido]-ethyl}amino)-8-azabicyclo[3.2.1]octane-8-carboxylate] | 49% |  | 5.99
CCOC(=O)N1C2CCC1CC(NCCNC(=O)c1ccc(F)cc1F)C2 (centres unmarked) [Example 6, ethyl 3-({2-[(2,4-difluorophenyl)formamido]-ethyl}amino)-8-azabicyclo[3.2.1]octane-8-carboxylate] | 82% | 7.14 | 
CCOC(=O)N1C2CCC1CC(NCCNC(=O)c1c(F)cccc1F)C2 (centres unmarked) [Example 21, ethyl 3-({2-[(2,6-difluorophenyl)formamido]-ethyl}amino)-8-azabicyclo[3.2.1]octane-8-carboxylate] | 18% |  | 6.06
CCOC(=O)N1C2CCC1CC(NCCNC(=O)c1ccc3c(c1)CCO3)C2 (centres unmarked) [Example 12, ethyl 3-{[2-(2,3-dihydro-1-benzofuran-5-ylformamido)ethyl]-amino}-8-azabicyclo[3.2.1]octane-8-carboxylate] | 31% |  | 
CCOC(=O)N1C2CCC1CC(NCCNC(=O)c1ccccn1)C2 (centres unmarked) [Example 16, ethyl 3-{[2-(pyridin-2-ylformamido)ethyl]-amino}-8-azabicyclo[3.2.1]octane-8-carboxylate] | 22% |  | 
CCOC(=O)N1C2CCC1CC(NCCNC(=O)c1ccccc1)C2 (centres unmarked) [Example 18, ethyl 3-{[2-(phenylformamido)ethyl]-amino}-8-azabicyclo[3.2.1]octane-8-carboxylate] | 103% | 7.17 | 
CCOC(=O)N1C2CCC1CC(NCCNC(=O)Cc1cccs1)C2 (centres unmarked) [Example 20, ethyl 3-({2-[2-(thiophen-2-yl)acetamido]ethyl}-amino)-8-azabicyclo[3.2.1]octane-8-carboxylate] | 51% |  | 
CCOC(=O)N1C2CCC1CC(NCCNC(=O)c1ccc(C)c(F)c1)C2 (centres unmarked) [Example 13, ethyl 3-({2-[(3-fluoro-4-methylphenyl)formamido]-ethyl}amino)-8-azabicyclo[3.2.1]octane-8-carboxylate] | 50% |  | 6.20
CCOC(=O)N1C2CCC1CC(NCCNC(=O)c1ccc(F)cc1C(F)(F)F)C2 (centres unmarked) [Example 5, ethyl 3-[(2-{[4-fluoro-2-(trifluoromethyl)phenyl]-formamido}ethyl)-amino]-8-azabicyclo[3.2.1]octane-8-carboxylate] | 39% |  | 
CCOC(=O)N1C2CCC1CC(NCCNC(=O)c1ccc(C)cc1)C2 (centres unmarked) [Example 8, ethyl 3-({2-[(4-methylphenyl)formamido]-ethyl}amino)-8-azabicyclo[3.2.1]octane-8-carboxylate] | 47% |  | 
CCOC(=O)N1C2CCC1CC(NCCNC(=O)c1ccc(C)c(C)c1)C2 (centres unmarked) [Example 11, ethyl 3-({2-[(3,4-dimethylphenyl)formamido]-ethyl}amino)-8-azabicyclo[3.2.1]octane-8-carboxylate] | 48% |  | 
CCOC(=O)N1C2CCC1CC(NCCNC(=O)c1ccc(F)c(F)c1)C2 (centres unmarked) [Example 15, ethyl 3-({2-[(3,4-difluorophenyl)formamido]-ethyl}amino)-8-azabicyclo[3.2.1]octane-8-carboxylate] | 104% |  | 6.91
CCOC(=O)N1C2CCC1CC(NCCNC(=O)c1ccco1)C2 (centres unmarked) [Example 14, ethyl 3-{[2-(furan-2-ylformamido)ethyl]-amino}-8-azabicyclo[3.2.1]octane-8-carboxylate] | 24% |  | 
CCOC(=O)N1C2CCC1CC(NCCNC(=O)c1ccc(Cl)cc1F)C2 (centres unmarked) [Example 17, ethyl 3-({2-[(4-chloro-2-fluorophenyl)formamido]-ethyl}amino)-8-azabicyclo[3.2.1]octane-8-carboxylate] | 20% |  | 
CCOC(=O)N1C2CCC1CC(NCCNC(=O)c1ccc(F)c(OC)c1)C2 (centres unmarked) [Example 22, ethyl 3-({2-[(4-fluoro-3-methoxyphenyl)formamido]-ethyl}amino)-8-azabicyclo[3.2.1]octane-8-carboxylate] | 12% |  | 5.83
CCOC(=O)N1C2CCC1CC(NCCNC(=O)c1ccccc1C)C2 (centres unmarked) [Example 3, ethyl 3-({2-[(2-methylphenyl)formamido]-ethyl}amino)-8-azabicyclo[3.2.1]octane-8-carboxylate] | 81% | 7.07 | 
CCOC(=O)N1C2CCC1CC(NCCNC(=O)c1ccccc1Cl)C2 (centres unmarked) [Example 25, ethyl 3-({2-[(2-chlorophenyl)formamido]-ethyl}amino)-8-azabicyclo[3.2.1]octane-8-carboxylate] | 80% |  | 6.95
CCOC(=O)N1C2CCC1CC(NCCNC(=O)c1ccc(F)c(C(F)(F)F)c1)C2 (centres unmarked) [Example 23, ethyl 3-[(2-{[4-fluoro-3-(trifluoromethyl)phenyl]-formamido}ethyl)amino]-8-azabicyclo[3.2.1]octane-8-carboxylate] | 47% |  | 5.57
